Measurements published in ChEMBL document CHEMBL1143751, “Isosteric probes provide structural requirements essential for detoxification of the phytoalexin brassinin by the fungal pathogen Leptosphaeria maculans” (2007).
Active and inactive are the calls of the source. The rule behind the calls is not given here.

Assays:
Plenodomus lingam [1] = assay: Specific activity of Leptosphaeria maculans brassinin oxidase
Plenodomus lingam [2] = assay: Antifungal activity against Leptosphaeria maculans BJ 125 at 0.50 mM; format: functional
Plenodomus lingam [3] = assay: Antifungal activity against Leptosphaeria maculans BJ 125 at 0.20 mM; format: functional
Plenodomus lingam [4] = assay: Antifungal activity against Leptosphaeria maculans BJ 125 at 0.10 mM; format: functional

| SMILES | Activity (Plenodomus lingam [1]) | inhibition at 500 µM (Plenodomus lingam [2]) | inhibition at 200 µM (Plenodomus lingam [3]) | inhibition at 100 µM (Plenodomus lingam [4]) | Activity (Plenodomus lingam [4]) |
| --- | --- | --- | --- | --- | --- |
| CSC(=O)NCc1c[nH]c2ccccc12 | 2150 mU/mg | – | – | – | – |
| COC(=O)N(C)Cc1c[nH]c2ccccc12 | inactive | – | – | – | – |
| CNC(=S)NCc1c[nH]c2ccccc12 | 2560 mU/mg | – | – | – | – |
| CC(=O)NCc1c[nH]c2ccccc12 | inactive | – | – | – | – |
| CCSC(=S)NCc1c[nH]c2ccccc12 | 434 mU/mg | 100% | 76% | 28% | – |
| CSC(=S)NCCc1c[nH]c2ccccc12 | inactive | – | – | – | – |
| CSC(=S)OCCc1c[nH]c2ccccc12 | inactive | – | – | – | – |
| CNC(=O)CCc1c[nH]c2ccccc12 | inactive | – | – | – | – |
| COC(=O)CCc1c[nH]c2ccccc12 | inactive | – | – | – | – |
| CNC(=O)NCc1c[nH]c2ccccc12 | 3280 mU/mg | – | – | – | – |
| CSC(=S)N(C)Cc1c[nH]c2ccccc12 | inactive | 100% | 100% | 74% | – |
| CCCSC(=S)NCc1c[nH]c2ccccc12 | inactive | 100% | 100% | 78% | – |
| CSC(=S)NCc1c[nH]c2ccccc12 [BRASSININ] | 835 mU/mg | 100% | 45% | – | inactive |
| CSC(=S)NCc1cn(C)c2ccccc12 | 944 mU/mg | – | – | – | – |
| COC(=O)NCc1c[nH]c2ccccc12 | 4060 mU/mg | – | – | – | – |
